Assay results: PMC6337650 (Molecules, 2018)

Columns and labels:
HCT-116 cells = test: MTT antiproliferative assay, HCT-116; format: cell-based, human; settings: Homo sapiens, HCT-116, 48 h, MTT, mean ± SD, n=3; for inhibition at 100 µM: read-out: % Growth Inhibition at 100 μM HCT-116
Procedure: (§1) The antiproliferative activity of the target compounds against a normal L02 cell line and the three different human cancer cell lines viz. colorectal (HCT-116), liver (BEL-7402) and liver (HepG2) were evaluated using a standard MTT-based colorimetric assay. All cell lines were obtained from the Key Laboratory of Natural Resources and Functional Molecules of the Changbai Mountain (Yanbian University, Jilin, China) and maintained in Dulbecco’s modified Eagle’s medium (DMEM) and RPMI Media 1640 (RPMI1640), supplemented with 10% fetal bovine serum (FBS) at 37 °C in a humidified atmosphere containing 5% CO2.
(§2) Cells were plated in 96-well plates at appropriate densities to ensure exponential growth throughout the experimental period (9 × 10^3 cells per well) and then allowed to adhere for 24 h. Cells were then treated for 48 h with four serial concentrations (1, 10, 50 and 100 µM) of each compound. 5-fluorouracil (5-FU) was used as a positive control. After 48 h of incubation, 10 µL of MTT solution was added to each well to a final concentration of 2 mg/mL. Plates were then incubated for a further 4 h. After incubation, the MTT solution was removed and 150 µL of DMSO was added to each well for coloration. The plates were shaken vigorously for 10 min at room temperature to ensure complete solubilization. The optical density (OD) was read on a microplate reader (ELx800, BioTek, Highland Park, Winooski, VT, USA) at a wavelength of 492 nm and the data were subsequently analyzed. The percentage of cell growth inhibition was calculated from the following equation: Inhibitory rate (%) = [(1 − (ODtreated-ODblank)/(ODcontrol-ODblank)] × 100.(1)

BEL-7402 cells = test: MTT antiproliferative assay, BEL-7402; format: cell-based, human; settings: Homo sapiens, Bel-7402, 48 h, MTT, mean ± SD, n=3; for inhibition at 100 µM: read-out: % Growth Inhibition at 100 μM BEL-7402
Procedure: as §1, §2

HepG2 cells = test: MTT antiproliferative assay, HepG2; format: cell-based, human; settings: Homo sapiens, HepG2, 48 h, MTT, mean ± SD, n=3; for inhibition at 100 µM: read-out: % Growth Inhibition at 100 μM HepG2
Procedure: as §1, §2

L02 cells = test: MTT assay on normal liver cells L02; format: cell-based; settings: Homo sapiens, normal liver cells, 48 h, MTT, Table 2, read-out: IC50 Values (μM) L02
Procedure: as §1
as §2, with “5-fluorouracil (5-FU) was used as a positive control.” left out

HeLa cells = settings: read-out: IC50 against HeLa cells; cited from earlier work
HT29 cells = settings: cell line printed as HT24 in b5; read-out: IC50 against HT24 cell line; cited from earlier work
AGS cells = settings: read-out: IC50 against AGS cells; cited from earlier work
T24 cells = settings: Figure 2; read-out: IC50 against T24 cells; cited from earlier work
HL-60 cells = system: HL-60 cells; design: method as in PMID 26653151, PMID 25405286; settings: Figure 2; read-out: IC50 against HL-60 cells; cited from earlier work

| Compound | inhibition at 100 µM (HCT-116 cells) | IC50 (HCT-116 cells) | inhibition at 100 µM (BEL-7402 cells) | IC50 (BEL-7402 cells) | inhibition at 100 µM (HepG2 cells) | IC50 (HepG2 cells) | IC50 (L02 cells) | melting point | further results |
| --- | --- | --- | --- | --- | --- | --- | --- | --- | --- |
| C[C@@]12CC[C@@H]3[C@@](CC[C@H]4[C@@]3(C)CCC[C@@]4(C)C(=O)OCC(=O)NCc3cn(-c4ccc(Cl)c(Cl)c4)nn3)(CC1=O)C2 [Compound 5e, 2-(((1-(3,4-dichlorophenyl)-1H-1,2,3-triazol-4-yl)methyl)amino)-2-oxoethyl(4R,4aS,6aR,9S,11aR,11bS)-4,9,11b-trimethyl-8-oxotetradecahydro-6a,9-methanocyclohepta[a]naphthalene-4-carboxylate] | 71.14 ± 0.65% | 14.3 ± 0.15 µM | 68 ± 1.17% | > 100 µM | 66.1 ± 0.97% | 12.82 ± 0.09 µM | > 100 µM | 96 to 97 °C |  |
| CCOP(=O)(OCC)C(NC(=O)COC(=O)[C@]1(C)CCC[C@@]2(C)[C@@H]3CC[C@@]4(C)C[C@]3(CC[C@@H]21)CC4=O)c1ccc(OC)cc1 (stereo partly drawn) [Compound 6c, 2-(((diethoxyphosphoryl)(4-methoxyphenyl)methyl)amino)-2-oxoethyl(4R,4aS,6aR,9S,11aR,11bS)-4,9,11b-trimethyl-8-oxotetradecahydro-6a,9-methanocyclohepta[a]naphthalene-4-carboxylate] | 74.1 ± 2.45% | 15.15 ± 0.11 µM | 50.9 ± 2.68% | 92.6 ± 1.96 µM | 41.4 ± 1.86% | > 100 µM | > 100 µM | 134 to 135 °C |  |
| CCOP(=O)(OCC)C(NC(=O)COC(=O)[C@]1(C)CCC[C@@]2(C)[C@@H]3CC[C@@]4(C)C[C@]3(CC[C@@H]21)CC4=O)c1ccc(C)cc1 (stereo partly drawn) [Compound 6d, 2-(((diethoxyphosphoryl)(p-tolyl)methyl)amino)-2-oxoethyl(4R,4aS,6aR,9S,11aR,11bS)-4,9,11b-trimethyl-8-oxotetradecahydro-6a,9-methanocyclohepta[a]naphthalene-4-carboxylate] | 76.6 ± 2.33% | 18.7 ± 0.17 µM | 51.5 ± 0.68% | 60.9 ± 1.37 µM | 80.64 ± 0.76% | 13.2 ± 0.86 µM | > 100 µM | 119 to 120 °C |  |
| CC(=O)O[C@H]1CC[C@@]2(C)C(CC[C@]3(C)C2CC=C2C4[C@@H](C)[C@H](C)CC[C@]4(C(=O)Nc4ccccc4)CC[C@]23C)C1(C)C (some centres unmarked) [Compound A] |  |  |  |  |  |  |  |  | IC50 (HeLa cells): 1.63 µM |
| CC(=O)O[C@H]1CC[C@@]2(C)C(CC[C@]3(C)C2CC=C2C4CC(C)(C)CC[C@]4(C(=O)NCCN4CCCC4)CC[C@]23C)C1(C)C (some centres unmarked) [Compound B] |  |  |  |  |  |  |  |  | IC50 (HT29 cells): 1.3 µM |
| COC(=O)C(Cc1c[nH]c2ccccc12)NC(=O)[C@]1(C)CC[C@]2(C)CC[C@]3(C)C4=CC=C5C(=CC(=O)C(O)=C5C)[C@]4(C)CC[C@@]3(C)C2C1 (some centres unmarked) [Compound C] |  |  |  |  |  |  |  |  | IC50 (AGS cells): 0.44 µM |
| CCOP(=O)(OCC)C(NC(=O)[C@]12CC[C@@H](C)[C@H](C)[C@H]1C1=CC[C@@H]3[C@@]4(C)C[C@@H](OC(C)=O)[C@H](OC(C)=O)[C@@](C)(COC(C)=O)[C@@H]4CC[C@@]3(C)[C@]1(C)CC2)c1ccccc1Cl (some centres unmarked) [Compound D] |  |  |  |  |  |  |  |  | IC50 (T24 cells): 6.59 µM |
| COC(=O)[C@]1(C)CCC[C@@]2(C)[C@@H]3CC[C@@]4(C)C[C@@]3(C=C4c3cn(CCCc4ccccc4)nn3)CC[C@@H]21 [Compound E] |  |  |  |  |  |  |  |  | IC50 (HL-60 cells): 25.6 µM |
